This note sets out measurements from US4317815A, “LH-RH Antagonists” (priority 1979, dated 1982).

*1 amine or outer side, *2 acyl side, *3 side chain or, on linkers, in order; H or OH if unused. Where a SMILES comes first, the peptide text is derived from it. [ ]: non-standard residue; d: D form. dPhe(4-Br) = N[C@H](Cc1ccc(Br)cc1)C(=O)O; dPhe(4-Cl) = N[C@H](Cc1ccc(Cl)cc1)C(=O)O; dPhe(4-F) = N[C@H](Cc1ccc(F)cc1)C(=O)O; Suc = O=C(CCC(=O)[*:2])[*:1]

This test deals with mature female rats. The test can be described thus: Antiovulatory activity (blockade of ovulation) in proestrus female rats, test of de la Cruz et al. Type of test: in vivo, rat. The settings on record: 12 noon of proestrus. The protocol:
The analogs are administered in 20% propylene glycol in physiologic saline (see Table I) or as a suspension in corn oil (see Table II) at 12 noon of the day of proestrus. On the following day, the rats are sacrificed, their fallopian tubes and uteri flushed with saline and the washed examined for ova.
The test results for several analogs are given in Table I. In Table II, a comparison, between the compound of formula I in which X is acetyl, R^1 is D-Phe, R^2 is D-p-Cl-Phe, R^3 is D-Trp, R^4 is D-Trp and R^5 is Gly, the title compound of Example 7, and the compound of the prior art, [Ac-D-Phe^1, D-Phe^2, D-Trp^3,6 ]-LH-RH, noted hereinbefore, is shown. As noted above, a different carrier is used for administering the compounds in Table I than in Table II.

The mark [1] stands for this setting: Table I, dose 0.25 mg, in 20% propylene glycol in physiologic saline, ova examined the following day.
Setting [2] is: Table I, dose 0.062 mg, in 20% propylene glycol in physiologic saline.
Setting [3] is: Table I, dose 0.125 mg, in 20% propylene glycol in physiologic saline.
Setting [4] is: Table I, dose 0.015 mg, in 20% propylene glycol in physiologic saline.

As to `CC(C)C[C@H](NC(=O)[C@@H](Cc1ccccc1)NC(=O)[C@H](Cc1ccc(O)cc1)NC(=O)[C@H](CO)NC(=O)[C@@H](Cc1c[nH]c2ccccc12)NC(=O)[C@@H](Cc1ccc(F)cc1)NC(=O)[C@H](N)Cc1ccccc1)C(=O)N[C@@H](CCCNC(=N)N)C(=O)N1CCC[C@H]1C(=O)NCC(N)=O` [D-Phenylalanyl-D-p-fluorophenylalanyl-D-tryptophyl-L-seryl-L-tyrosyl-D-phenylalanyl-L-leucyl-L-arginyl-L-prolyl-glycinamide] (H-[dF][dPhe(4-F)][dW]SY[dF]LRPG-NH2), under setting [1], the “% Blockade of Ovulation” value is reported as 10%.
Turning to `CC(=O)N[C@H](Cc1ccccc1)C(=O)N[C@H](Cc1ccc(Cl)cc1)C(=O)N[C@H](Cc1c[nH]c2ccccc12)C(=O)N[C@@H](CO)C(=O)N[C@@H](Cc1ccc(O)cc1)C(=O)N[C@H](Cc1c[nH]c2ccccc12)C(=O)N[C@@H](CC(C)C)C(=O)N[C@@H](CCCNC(=N)N)C(=O)N1CCC[C@H]1C(=O)NCC(N)=O` [Example 7, N-Acetyl-D-phenylalanyl-D-p-chlorophenylalanyl-D-tryptophyl-L-seryl-L-tyrosyl-D-tryptophyl-L-leucyl-L-arginyl-L-prolyl-glycinamide] (Ac-[dF][dPhe(4-Cl)][dW]SY[dW]LRPG-NH2), the “% Blockade of Ovulation” value stood at 64% (Table I, dose 0.031 mg, in 20% propylene glycol in physiologic saline); 100% under setting [2]; 100% (Table II, dose 15 mcg, suspension in corn oil); 100% (Table II, dose 31 mcg, suspension in corn oil).
With `CC(C)C[C@H](NC(=O)[C@@H](Cc1ccccc1)NC(=O)[C@H](Cc1ccc(O)cc1)NC(=O)[C@H](CO)NC(=O)[C@@H](Cc1c[nH]c2ccccc12)NC(=O)[C@@H](Cc1ccc(Br)cc1)NC(=O)[C@H](N)Cc1ccccc1)C(=O)N[C@@H](CCCNC(=N)N)C(=O)N1CCC[C@H]1C(=O)NCC(N)=O` [Example 8, D-Phenylalanyl-D-p-bromophenylalanyl-D-tryptophyl-L-seryl-L-tyrosyl-D-phenylalanyl-L-leucyl-L-arginyl-L-prolyl-glycinamide] (H-[dF][dPhe(4-Br)][dW]SY[dF]LRPG-NH2), the “% Blockade of Ovulation” value under setting [1] stood at 50%.
With `CC(C)C[C@H](NC(=O)[C@@H](Cc1ccccc1)NC(=O)[C@H](Cc1ccc(O)cc1)NC(=O)[C@H](CO)NC(=O)[C@@H](Cc1c[nH]c2ccccc12)NC(=O)[C@@H](Cc1ccc(Cl)cc1)NC(=O)[C@H](N)Cc1ccccc1)C(=O)N[C@@H](CCCNC(=N)N)C(=O)N1CCC[C@H]1C(=O)NCC(N)=O` [Example 9, D-Phenylalanyl-D-p-chlorophenylalanyl-D-tryptophyl-L-seryl-L-tyrosyl-D-phenylalanyl-L-leucyl-L-arginyl-L-prolyl-glycinamide] (H-[dF][dPhe(4-Cl)][dW]SY[dF]LRPG-NH2), the “% Blockade of Ovulation” value under setting [3] came to 11% and the “% Blockade of Ovulation” value under setting [1] amounted to 82%.
Turning to `CC(C)C[C@H](NC(=O)[C@@H](Cc1ccccc1)NC(=O)[C@H](Cc1ccc(O)cc1)NC(=O)[C@H](CO)NC(=O)[C@@H](Cc1c[nH]c2ccccc12)NC(=O)[C@@H](Cc1ccc(Cl)cc1)NC(=O)[C@@H](Cc1ccccc1)NC(=O)CCC(=O)O)C(=O)N[C@@H](CCCNC(=N)N)C(=O)N1CCC[C@H]1C(=O)NCC(N)=O` [Example 10, N-Succinyl-D-phenylalanyl-D-p-chlorophenylalanyl-D-tryptophyl-L-seryl-L-tyrosyl-D-phenylalanyl-L-leucyl-L-arginyl-l-prolyl-glycinamide] (Suc-[dF][dPhe(4-Cl)][dW]SY[dF]LRPG-NH2), the “% Blockade of Ovulation” value amounted to 50% under setting [2] and 80% under setting [3].
Take `CC(=O)N[C@H](Cc1ccc(Cl)cc1)C(=O)N[C@H](Cc1ccc(Cl)cc1)C(=O)N[C@H](Cc1c[nH]c2ccccc12)C(=O)N[C@@H](CO)C(=O)N[C@@H](Cc1ccc(O)cc1)C(=O)N[C@H](Cc1c[nH]c2ccccc12)C(=O)N[C@@H](CC(C)C)C(=O)N[C@@H](CCCNC(=N)N)C(=O)N1CCC[C@H]1C(=O)NCC(N)=O` [Example 14, N-Acetyl-D-p-chlorophenylalanyl-D-p-chlorophenylalanyl-D-tryptophyl-L-seryl-L-tyrosyl-D-tryptophyl-L-leucyl-L-arginyl-L-prolyl-glycinamide] (Ac-[dPhe(4-Cl)][dPhe(4-Cl)][dW]SY[dW]LRPG-NH2): under setting [4], the “% Blockade of Ovulation” value came out at 70%.
The same measure, in the same setting: the figure for `CC(=O)N[C@H](Cc1ccccc1)C(=O)N[C@H](Cc1ccc(Cl)cc1)C(=O)N[C@H](Cc1c[nH]c2ccccc12)C(=O)N[C@@H](CO)C(=O)N[C@@H](Cc1ccc(O)cc1)C(=O)N[C@H](Cc1c[nH]c2ccccc12)C(=O)N[C@@H](CC(C)C)C(=O)N[C@@H](CCCNC(=N)N)C(=O)N1CCC[C@H]1C(=O)N[C@H](C)C(N)=O` [Example 16, N-Acetyl-D-phenylalanyl-D-p-chlorophenylalanyl-D-tryptophyl-L-seryl-L-tyrosyl-D-tryptophyl-L-leucyl-L-arginyl-L-prolyl-D-alaninamide] (Ac-[dF][dPhe(4-Cl)][dW]SY[dW]LRP[dA]-NH2) is 100%.
On to `CC(=O)N[C@H](Cc1ccccc1)C(=O)N[C@H](Cc1ccccc1)C(=O)N[C@H](Cc1c[nH]c2ccccc12)C(=O)N[C@@H](CO)C(=O)N[C@@H](Cc1ccc(O)cc1)C(=O)N[C@H](Cc1c[nH]c2ccccc12)C(=O)N[C@@H](CC(C)C)C(=O)N[C@@H](CCCNC(=N)N)C(=O)N1CCC[C@H]1C(=O)NCC(N)=O` [[Ac-D-Phe^1, D-Phe^2, D-Trp^3,6]-LH-RH, reference compound] (Ac-[dF][dF][dW]SY[dW]LRPG-NH2), for which the “% Blockade of Ovulation” value by setting is: (Table II, dose 100 mcg, suspension in corn oil) 40%; (Table II, dose 250 mcg, suspension in corn oil) 100%.
